Measured values: the supplement of paper PMC10331698
± gives the standard deviation of the averaged measurements.

Columns and labels:
Assay in all cases: level (log10 ratio to DMSO vehicle control); higher = higher biomarker level / cell amount than vehicle control
[1] = compound: C=C(C)C(=O)OCCC(F)(F)C(F)(F)C(F)(F)C(F)(F)C(F)(F)C(F)(F)F [6:2 Fluorotelomer methacrylate]; conditions: in DMSO
Method: (§1)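 BioMAP Diversity Plus panel of 12 human primary cell co-culture systems (3C, 4H, LPS, SAg, BT, BF4T, BE3C, CASM3C, HDF3CGF, KF3CT, MyoF, Mphg). Compounds were added 1 h before stimulation and left for 24 h (MyoF 48 h; BT 72 h for soluble read-outs or 6 d for IgG). Biomarkers were read by ELISA, cytotoxicity by SRB, PBMC viability and proliferation by Alamar Blue. Each well value was divided by the mean of 8 DMSO control wells on the same plate and log10 transformed; duplicate blinded samples were tested at 4 concentrations.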

[2] = compound: C=CC(=O)OCC(F)(F)C(F)(F)C(F)(F)COC(=O)C=C [1H,1H,5H,5H-Perfluoro-1,5-pentanediol diacrylate]; conditions: 6700 nM; in DMSO
Method: as §1

[3] = compound: COC(=O)C(F)(F)C(F)(F)OC(F)(C(F)(F)F)C(F)(F)OC(F)=C(F)F [Methyl perfluoro(3-(1-ethenyloxypropan-2-yloxy)propanoate)]; conditions: in DMSO
Method: as §1

[4] = compound: FC(F)(F)C(F)(F)C(F)(F)C(F)(F)C(F)(F)C(F)(F)C(F)(F)I [1-Iodopentadecafluoroheptane]; conditions: in DMSO
Method: as §1

[5] = compound: FC(F)(F)C(F)(F)C(F)(F)C(F)(F)C(F)(F)C(F)(F)CC1CO1 [3-(Perfluorohexyl)-1,2-epoxypropane]; conditions: in DMSO
Method: as §1

[6] = compound: FC(F)(F)C(F)(F)C(F)(F)CC1CO1 [1H,1H-Heptafluorobutyl epoxide]; conditions: in DMSO
Method: as §1

Heptafluorobutyl iodide = compound: FC(F)(F)C(F)(F)C(F)(F)CI [Heptafluorobutyl iodide]; conditions: in DMSO
Method: as §1

[7] = compound: FC(F)(F)C(F)(F)CNCC(F)(F)C(F)(F)F [Bis(1H,1H-perfluoropropyl)amine]; conditions: in DMSO
Method: as §1

Octafluoroadipamide = compound: NC(=O)C(F)(F)C(F)(F)C(F)(F)C(F)(F)C(N)=O [Octafluoroadipamide]; conditions: in DMSO
Method: as §1

Nonafluoropentanamide = compound: NC(=O)C(F)(F)C(F)(F)C(F)(F)C(F)(F)F [Nonafluoropentanamide]; conditions: in DMSO
Method: as §1

[8] = compound: NC(=O)C(F)(F)C(F)(F)C(F)(F)C(F)F; conditions: in DMSO
Method: as §1

[9] = compound: NS(=O)(=O)C(F)(F)C(F)(F)C(F)(F)C(F)(F)C(F)(F)C(F)(F)F [Perfluorohexanesulfonamide]; conditions: in DMSO
Method: as §1

[10] = compound: O=C(O)C(F)(F)C(F)(F)C(F)(F)C(F)(F)C(F)(F)C(F)(F)C(F)(F)C(F)(F)C(F)(F)C(F)F [11-H-Perfluoroundecanoic acid]; conditions: in DMSO
Method: as §1

[11] = compound: O=C(O)C=CC(F)(C(F)(F)F)C(F)(F)F [3-(Perfluoroisopropyl)-2-propenoic acid]; conditions: in DMSO
Method: as §1

[12] = compound: O=S(=O)(Cl)C(F)(F)C(F)(F)C(F)(F)C(F)(F)C(F)(F)C(F)(F)C(F)(F)C(F)(F)F [Perfluoro-1-octanesulfonyl chloride]; conditions: in DMSO
Method: as §1

[13] = compound: O=S(=O)(F)C(F)(F)C(F)(F)C(F)(F)C(F)(F)C(F)(F)C(F)(F)C(F)(F)C(F)(F)F [Perfluorooctanesulfonyl fluoride]; conditions: in DMSO
Method: as §1

[14] = compound: O=S(=O)(O)C(F)(F)C(F)(F)C(F)(F)C(F)(F)C(F)(F)C(F)(F)C(F)(F)C(F)(F)C(F)(F)C(F)(F)F [Sodium perfluorodecanesulfonate]; conditions: in DMSO
Method: as §1

[15] = compound: O=S(=O)(O)CCC(F)(F)C(F)(F)C(F)(F)C(F)(F)C(F)(F)C(F)(F)F [6:2 Fluorotelomer sulfonic acid]; conditions: in DMSO
Method: as §1

Hexafluoroamylene glycol = compound: OCC(F)(F)C(F)(F)C(F)(F)CO [Hexafluoroamylene glycol]; conditions: in DMSO
Method: as §1

3C:CXCL8/IL-8
level (log10) ([1]; 6700 nM): 0.018 ± 0.021 | level (log10) ([1]; 20000 nM): 0.024 ± 0.016 | level (log10) ([1]; 60000 nM): 0.0505 ± 0.018 | level (log10) [2]: -0.0045 ± 0.018 | level (log10) ([3]; 6700 nM): 0.0075 ± 0.046 | level (log10) ([3]; 20000 nM): 0.0485 ± 0.061 | level (log10) ([4]; 6700 nM): 0.004 ± 0.0057 | level (log10) ([4]; 20000 nM): 0.0655 ± 0.021 | level (log10) ([5]; 6700 nM): -0.002 ± 0.0085 | level (log10) ([5]; 20000 nM): -0.004 ± 0.0014 | level (log10) ([5]; 60000 nM): 0.035 ± 0.042 | level (log10) ([6]; 6700 nM): -0.0225 ± 0.019 | level (log10) ([6]; 20000 nM): -0.019 ± 0.0057 | level (log10) ([6]; 60000 nM): 0 ± 0.018 | level (log10) (Heptafluorobutyl iodide; 6700 nM): -0.026 ± 0.018 | level (log10) (Heptafluorobutyl iodide; 20000 nM): -0.0225 ± 0.019 | level (log10) (Heptafluorobutyl iodide; 60000 nM): -0.0025 ± 0.04 | level (log10) ([7]; 6700 nM): -0.0005 ± 0.0092 | level (log10) ([7]; 20000 nM): 0.0005 ± 0.052 | level (log10) ([7]; 60000 nM): 0.0445 ± 0.093 | level (log10) (Octafluoroadipamide; 6700 nM): 0.0145 ± 0.042 | level (log10) (Octafluoroadipamide; 20000 nM): 0.0035 ± 0.025 | level (log10) (Octafluoroadipamide; 60000 nM): 0.041 ± 0.0042 | level (log10) (Nonafluoropentanamide; 6700 nM): -0.001 ± 0.016 | level (log10) (Nonafluoropentanamide; 20000 nM): -0.0145 ± 0.0092 | level (log10) (Nonafluoropentanamide; 60000 nM): 0.0345 ± 0.04 | level (log10) ([8]; 6700 nM): 0.0025 ± 0.016 | level (log10) ([8]; 20000 nM): -0.007 ± 0.0042 | level (log10) ([8]; 60000 nM): 0.012 ± 0.0099 | level (log10) ([9]; 6700 nM): 0.011 ± 0.023 | level (log10) ([9]; 20000 nM): 0.0415 ± 0.0092 | level (log10) ([9]; 60000 nM): 0.024 ± 0.013 | level (log10) ([10]; 6700 nM): 0.012 ± 0.0014 | level (log10) ([10]; 20000 nM): 0.011 ± 0.0071 | level (log10) ([11]; 6700 nM): -0.001 ± 0.038 | level (log10) ([11]; 20000 nM): -0.0275 ± 0.0092 | level (log10) ([11]; 60000 nM): 0.028 ± 0.033 | level (log10) ([12]; 6700 nM): 0.013 ± 0.014 | level (log10) ([12]; 20000 nM): 0.043 ± 0.013 | level (log10) ([12]; 60000 nM): 0.16 ± 0.0099 | level (log10) ([13]; 6700 nM): -0.006 ± 0.0085 | level (log10) ([13]; 20000 nM): 0.002 | level (log10) ([13]; 60000 nM): 0.0145 ± 0.019 | level (log10) ([14]; 1500 nM): 0.035 ± 0.035 | level (log10) ([14]; 4400 nM): 0.021 ± 0.013 | level (log10) ([14]; 13000 nM): 0.03 ± 0.017 | level (log10) ([14]; 40000 nM): 0.0725 ± 0.013 | level (log10) ([15]; 6700 nM): -0.034 ± 0.055 | level (log10) ([15]; 20000 nM): -0.0325 ± 0.053 | level (log10) ([15]; 60000 nM): 0.06 ± 0.0085 | level (log10) (Hexafluoroamylene glycol; 6700 nM): -0.0275 ± 0.069 | level (log10) (Hexafluoroamylene glycol; 20000 nM): -0.022 ± 0.042 | level (log10) (Hexafluoroamylene glycol; 60000 nM): 0.012 ± 0.028

BE3C:CXCL11/I-TAC
level (log10) ([1]; 6700 nM): 0.0125 ± 0.023 | level (log10) ([1]; 20000 nM): 0 ± 0.014 | level (log10) ([1]; 60000 nM): 0.0155 ± 0.028 | level (log10) [2]: 0.0085 ± 0.011 | level (log10) ([3]; 6700 nM): -0.038 ± 0.024 | level (log10) ([3]; 20000 nM): -0.192 ± 0.025 | level (log10) ([4]; 6700 nM): 0.0005 ± 0.015 | level (log10) ([4]; 20000 nM): 0.004 ± 0.013 | level (log10) ([5]; 6700 nM): -0.0115 ± 0.011 | level (log10) ([5]; 20000 nM): -0.02 ± 0.011 | level (log10) ([5]; 60000 nM): -0.009 ± 0.014 | level (log10) ([6]; 6700 nM): 0.0015 ± 0.00071 | level (log10) ([6]; 20000 nM): 0.0115 ± 0.005 | level (log10) ([6]; 60000 nM): 0.013 ± 0.0014 | level (log10) (Heptafluorobutyl iodide; 6700 nM): 0.005 ± 0.048 | level (log10) (Heptafluorobutyl iodide; 20000 nM): -0.0175 ± 0.005 | level (log10) (Heptafluorobutyl iodide; 60000 nM): 0.0245 ± 0.025 | level (log10) ([7]; 6700 nM): -0.026 ± 0.013 | level (log10) ([7]; 20000 nM): -0.0135 ± 0.016 | level (log10) ([7]; 60000 nM): 0.008 ± 0.016 | level (log10) (Octafluoroadipamide; 6700 nM): -0.0085 ± 0.0035 | level (log10) (Octafluoroadipamide; 20000 nM): -0.0155 ± 0.00071 | level (log10) (Octafluoroadipamide; 60000 nM): -0.014 ± 0.021 | level (log10) (Nonafluoropentanamide; 6700 nM): 0.012 ± 0.0099 | level (log10) (Nonafluoropentanamide; 20000 nM): 0.01 ± 0.017 | level (log10) (Nonafluoropentanamide; 60000 nM): 0.003 ± 0.027 | level (log10) ([8]; 6700 nM): 0.005 ± 0.0028 | level (log10) ([8]; 20000 nM): -0.002 ± 0.0042 | level (log10) ([8]; 60000 nM): 0.002 ± 0.0057 | level (log10) ([9]; 6700 nM): 0.0015 ± 0.052 | level (log10) ([9]; 20000 nM): -0.023 ± 0.035 | level (log10) ([9]; 60000 nM): -0.107 ± 0.067 | level (log10) ([10]; 6700 nM): -0.04 ± 0.0057 | level (log10) ([10]; 20000 nM): -0.826 ± 0.0085 | level (log10) ([11]; 6700 nM): -0.0175 ± 0.0078 | level (log10) ([11]; 20000 nM): -0.009 ± 0.0057 | level (log10) ([11]; 60000 nM): 0.005 ± 0.011 | level (log10) ([12]; 6700 nM): -0.012 ± 0.014 | level (log10) ([12]; 20000 nM): 0.002 ± 0.011 | level (log10) ([12]; 60000 nM): -0.598 ± 0.059 | level (log10) ([13]; 6700 nM): 0.005 ± 0.0014 | level (log10) ([13]; 20000 nM): -0.0005 ± 0.012 | level (log10) ([13]; 60000 nM): -0.006 ± 0.011 | level (log10) ([14]; 1500 nM): 0.0095 ± 0.005 | level (log10) ([14]; 4400 nM): 0.0075 ± 0.0064 | level (log10) ([14]; 13000 nM): 0.0185 ± 0.005 | level (log10) ([14]; 40000 nM): -0.0685 ± 0.036 | level (log10) ([15]; 6700 nM): 0.037 ± 0.028 | level (log10) ([15]; 20000 nM): 0.0585 ± 0.00071 | level (log10) ([15]; 60000 nM): 0.067 ± 0.018 | level (log10) (Hexafluoroamylene glycol; 6700 nM): 0.002 ± 0.021 | level (log10) (Hexafluoroamylene glycol; 20000 nM): 0.013 ± 0.045 | level (log10) (Hexafluoroamylene glycol; 60000 nM): 0.035 ± 0.018
